Results published in patent publication US20160046616A1, “NRF2 SMALL MOLECULE INHIBITORS FOR CANCER THERAPY” (THE JOHNS HOPKINS UNIVERSITY, priority 2013, published 2016).

Legend:
[1] = test system: H1437 NRF2-ARE-Fluc stable cell line; test: H1437 Nrf2 assay: NRF2-ARE firefly luciferase reporter gene assay; assay type: cell-based; conditions: Homo sapiens, NCI-H1437, H1437 NRF2-ARE-Fluc stable cell line; read-out: Potency of inhibition, H1437
[2] = test system: A549 NRF2-ARE-Fluc stable cell line; test: A549 Nrf2 assay: NRF2-ARE firefly luciferase reporter gene assay; assay type: cell-based; conditions: Homo sapiens, read-out: Potency of inhibition, A549
In short: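 A549 cells (Keap1 loss-of-function, constitutive NRF2) stably carrying ARE-driven firefly luciferase; compound treatment 18–24 h at 37 °C, 0.46% DMSO final.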

SMILES	IC50 [1]	IC50 [2]
Cc1ccc(Cc2cnc(NC(=O)c3ccn(-c4ccccc4)n3)s2)o1 [Compound 213]	5 to 25 µM	5 to 25 µM
O=C(Nc1ncc(Cc2ccccc2F)s1)c1ccn(-c2ccccc2)n1 [Compound 215]	< 5 µM	< 5 µM
O=C(Nc1ncc(Cc2ccccc2Cl)s1)c1ccn(-c2ccccc2)n1 [Compound 216]	5 to 25 µM	5 to 25 µM
O=C(Nc1ncc(Cc2ccc(Cl)cc2)s1)c1ccn(-c2ccccc2)n1 [Compound 224]	< 5 µM	< 5 µM
CC1c2ccccc2CCN1Cc1ccc(C(=O)Nc2ccc(S(=O)(=O)N3CCOCC3)cc2)cc1 (centres unmarked) [Compound 230]	< 5 µM	< 5 µM
O=C(Nc1ncc(Cc2ccc(C(F)(F)F)cc2)s1)c1ccn(CCN2CCOCC2)n1 [Compound 231]	< 5 µM	5 to 25 µM
Cc1ccc(C(=O)Nc2ccc(S(=O)(=O)N3CCOCC3)cc2)cc1 [compound 51]	> 25 µM	5 to 25 µM
CC1(C)CC2CC(C)(CN2S(=O)(=O)c2ccc(C(=O)Nc3cccc(S(=O)(=O)N4CCOCC4)c3)cc2)C1 (centres unmarked) [compound 52]	< 5 µM	< 5 µM
CC1(C)CC2CC(C)(CN2S(=O)(=O)c2ccc(C(=O)Nc3ccc(Cl)cc3)cc2)C1 (centres unmarked) [compound 53]	5 to 25 µM	< 5 µM
O=C(Nc1ccc(Cl)c(S(=O)(=O)N2CCOCC2)c1)c1ccc(S(=O)(=O)N2CCCCC2)cc1 [compound 54]	< 5 µM	< 5 µM
O=C(Nc1ccc(Cl)c(S(=O)(=O)N2CCOCC2)c1)c1ccc(S(=O)(=O)N2CCOCC2)cc1 [compound 55]	< 5 µM	< 5 µM
O=C(Nc1ccc(Cl)c(S(=O)(=O)N2CCOCC2)c1)c1ccccc1 [compound 62]	5 to 25 µM	5 to 25 µM
O=C(Nc1ccccc1)c1ccc(CN2CCc3ccccc3C2)cc1 [compound 143]	> 25 µM	5 to 25 µM
O=C(Nc1ccc(S(=O)(=O)N2CCCC2)cc1)c1ccc(CN2CCc3ccccc3C2)cc1 [compound 145]	> 25 µM	< 5 µM
CN1CCN(S(=O)(=O)c2ccc(NC(=O)c3ccc(CN4CCc5ccccc5C4)cc3)cc2)CC1 [compound 146]	> 25 µM	< 5 µM
O=C(Nc1ccc(C(=O)N2CCOCC2)cc1)c1ccc(CN2CCc3ccccc3C2)cc1 [compound 147]	> 25 µM	5 to 25 µM
CN(C)[S+](=O)([O-])c1ccc(NC(=O)c2ccc(CN3CCc4ccccc4C3)cc2)cc1 [compound 148]	> 25 µM	< 5 µM
O=C(Nc1ccc(N2CCOCC2)cc1)c1ccc(CN2CCc3ccccc3C2)cc1 [compound 149]	> 25 µM	< 5 µM
O=C(Nc1ccc(S(=O)(=O)N2CCOCC2)cc1)c1ccc(N2CCc3ccccc3C2)cc1 [compound 152]	< 5 µM	< 5 µM
O=C(Nc1ccc(S(=O)(=O)N2CCNCC2)cc1)c1ccc(CN2CCc3ccccc3C2)cc1 [compound 154]	> 25 µM	5 to 25 µM
CC1CN(S(=O)(=O)c2ccc(NC(=O)c3ccc(CN4CCc5ccccc5C4)cc3)cc2)CC(C)O1 (centres unmarked) [compound 155]	< 5 µM	< 5 µM
O=C(Nc1ccc(CN2CCOCC2)cc1)c1ccc(CN2CCc3ccccc3C2)cc1 [compound 163]	> 25 µM	< 5 µM
O=C(Nc1ccc(S(=O)(=O)N2CCOCC2c2ccccc2)cc1)c1ccc(CN2CCc3ccccc3C2)cc1 (centres unmarked) [compound 165]	5 to 25 µM	< 5 µM
O=C(Nc1ccc(S(=O)(=O)N2CCOCC2)cc1)c1ccc(CCN2CCc3ccccc3C2)cc1 [compound 166]	5 to 25 µM	< 5 µM

Results, then the molecule that gave them:

IC50 [1]	IC50 [2]	SMILES
< 5 µM	< 5 µM	COc1ccc(CC(=O)Nc2nc(-c3ccc4c(c3)CCN4C(=O)C3CC3C)c(C)s2)cc1 (centres unmarked) [Compound 208]
< 5 µM	5 to 25 µM	Cc1ccccc1C(=O)N1CCc2cc(-c3nc(NC(=O)C(C)(C)C)sc3C)ccc21 [Compound 209]
5 to 25 µM	< 5 µM	Cc1ccccc1C(=O)N1CCc2cc(-c3nc(NC(=O)CCc4ccccc4)sc3C)ccc21 [Compound 210]
5 to 25 µM	5 to 25 µM	O=C(Nc1ccc(S(=O)(=O)N2CCOCC2)cc1)c1cccc(CN2CCc3ccccc3C2)c1 [Compound 211]
< 5 µM	< 5 µM	Cc1ccccc1C(=O)N1CCc2cc(-c3nc(NC(=O)CN4CCN(C(=O)C5CC5)CC4)sc3C)ccc21 [Compound 212]
5 to 25 µM	5 to 25 µM	Cc1ccccc1Cc1cnc(NC(=O)c2ccn(-c3ccccc3)n2)s1 [Compound 214]
5 to 25 µM	5 to 25 µM	Cc1cccc(Cc2cnc(NC(=O)c3ccn(-c4ccccc4)n3)s2)c1 [Compound 217]
< 5 µM	5 to 25 µM	O=C(Nc1ncc(Cc2cccc(F)c2)s1)c1ccn(-c2ccccc2)n1 [Compound 218]
5 to 25 µM	< 5 µM	COc1cccc(Cc2cnc(NC(=O)c3ccn(-c4ccccc4)n3)s2)c1 [Compound 219]
< 5 µM	5 to 25 µM	O=C(Nc1ncc(Cc2cccc(Cl)c2)s1)c1ccn(-c2ccccc2)n1 [Compound 220]
5 to 25 µM	5 to 25 µM	Cc1ccc(Cc2cnc(NC(=O)c3ccn(-c4ccccc4)n3)s2)cc1 [Compound 221]
< 5 µM	< 5 µM	O=C(Nc1ncc(Cc2ccc(F)cc2)s1)c1ccn(-c2ccccc2)n1 [Compound 222]
5 to 25 µM	5 to 25 µM	COc1ccc(Cc2cnc(NC(=O)c3ccn(-c4ccccc4)n3)s2)cc1 [Compound 223]
5 to 25 µM	5 to 25 µM	CC(=O)N1CCN(CC(=O)Nc2nc(-c3ccc4c(c3)CCN4C(=O)c3ccccc3C)c(C)s2)CC1 [Compound 227]
< 5 µM	< 5 µM	CCOC(=O)N1CCN(CC(=O)Nc2nc(-c3ccc4c(c3)CCN4C(=O)c3ccccc3C)c(C)s2)CC1 [Compound 228]
< 5 µM	< 5 µM	Cc1ccccc1C(=O)N1CCc2cc(-c3nc(NC(=O)CN4CCN(c5ccccc5)CC4)sc3C)ccc21 [Compound 229]

IC50 [1]	IC50 [2]	SMILES
5 to 25 µM	5 to 25 µM	COc1ccc(CC(=O)Nc2nc(-c3ccc4c(c3)CC(C)N4C(=O)c3ccccc3C)c(C)s2)cc1 (centres unmarked) [Compound 232]
5 to 25 µM	5 to 25 µM	COc1ccc(CC(=O)Nc2nc(-c3ccc4c(c3)CCN4C(=O)c3ccc(C4(C(F)(F)F)N=N4)cc3)c(C)s2)cc1 [Compound 233]
5 to 25 µM	5 to 25 µM	Cc1ccccc1C(=O)N1CCc2cc(-c3nc(NC(=O)Cc4cccc(O)c4)sc3C)ccc21 [Compound 234, 2-(3-hydroxyphenyl)-N-(5-methyl-4-(1-(2-methylbenzoyl)indolin-5-yl)thiazol-2-yl)acetamide]
5 to 25 µM	5 to 25 µM	Cc1ccccc1C(=O)N1CCc2cc(-c3nc(NC(=O)Cc4ccc(O)cc4)sc3C)ccc21 [Compound 235, 2-(4-hydroxyphenyl)-N-(5-methyl-4-(1-(2-methylbenzoyl)indolin-5-yl)thiazol-2-yl)acetamide]
< 5 µM	< 5 µM	Cc1ccccc1C(=O)N1CCc2cc(-c3nc(NC(=O)Cc4ccc(OCCOCCOCCNC(=O)OC(C)(C)C)cc4)sc3C)ccc21 [Compound 236, tert-butyl (2-(2-(2-(4-(2-((5-methyl-4-(1-(2-methylbenzoyl)indolin-5-yl)thiazol-2-yl)amino)-2-oxoethyl)phenoxy)ethoxy)ethoxy)ethyl)carbamate]
< 5 µM	< 5 µM	Cc1ccccc1C(=O)N1CCc2cc(-c3nc(NC(=O)Cc4cccc(OCCOCCOCCNC(=O)OC(C)(C)C)c4)sc3C)ccc21 [Compound 237, tert-butyl (2-(2-(2-(3-(2-((5-methyl-4-(1-(2-methylbenzoyl)indolin-5-yl)thiazol-2-yl)amino)-2-oxoethyl)phenoxy)ethoxy)ethoxy)ethyl)carbamate]
5 to 25 µM	5 to 25 µM	Cc1ccccc1C(=O)N1CCc2cc(-c3nc(NC(=O)Cc4cccc(OCCOCCOCCN)c4)sc3C)ccc21 [Compound 238, 2-(3-(2-(2-(2-aminoethoxy)ethoxy)ethoxy)phenyl)-N-(5-methyl-4-(1-(2-methylbenzoyl)indolin-5-yl)thiazol-2-yl)acetamide]
5 to 25 µM	> 25 µM	Cc1ccccc1C(=O)N1CCc2cc(-c3nc(NC(=O)Cc4ccc(OCCOCCOCCN)cc4)sc3C)ccc21 [Compound 239, 2-(4-(2-(2-(2-aminoethoxy)ethoxy)ethoxy)phenyl)-N-(5-methyl-4-(1-(2-methylbenzoyl)indolin-5-yl)thiazol-2-yl)acetamide]
< 5 µM	5 to 25 µM	Cc1ccccc1C(=O)N1CCc2cc(-c3nc(NC(=O)Cc4cccc(OCCOCCOCCNC(=O)CCCC[C@@H]5SC[C@@H]6NC(=O)N[C@@H]65)c4)sc3C)ccc21 [Compound 240]
5 to 25 µM	> 25 µM	Cc1ccccc1C(=O)N1CCc2cc(-c3nc(NC(=O)Cc4ccc(OCCOCCOCCNC(=O)CCCC[C@@H]5SC[C@@H]6NC(=O)N[C@@H]65)cc4)sc3C)ccc21 [Compound 241]
> 25 µM	5 to 25 µM	O=C(Nc1cccc(S(=O)(=O)N2CCOCC2)c1)c1ccc(CN2CCc3ccccc3C2)cc1 [compound 119]
< 5 µM	< 5 µM	CC(C)(C)OC(=O)N1CCN(S(=O)(=O)c2ccc(NC(=O)c3ccc(CN4CCc5ccccc5C4)cc3)cc2)CC1 [compound 144]
< 5 µM	< 5 µM	CCN(CC)S(=O)(=O)c1ccc(NC(=O)c2ccc(CN3CCc4ccccc4C3)cc2)cc1 [compound 153]
> 25 µM	> 25 µM	O=C(Nc1ccc([S+](=O)([O-])O)cc1)c1ccc(CN2CCc3ccccc3C2)cc1 [compound 156]
5 to 25 µM	< 5 µM	CN(C1CCOCC1)S(=O)(=O)c1ccc(NC(=O)c2ccc(CN3CCc4ccccc4C3)cc2)cc1 [compound 167]
